The values that follow come from patent US5861410A, “Tetrahydro-beta-carbolines” (Eli Lilly and Company, priority 1997, dated 1999).

Structures are written as SMILES. Structures can show the parent of a compound that is named as a salt.

For one assay, the target named is T1, 5-HT1c receptor (Bos taurus, UniProt A0AAA9SBU1).
T1 sequence (A0AAA9SBU1 33-457): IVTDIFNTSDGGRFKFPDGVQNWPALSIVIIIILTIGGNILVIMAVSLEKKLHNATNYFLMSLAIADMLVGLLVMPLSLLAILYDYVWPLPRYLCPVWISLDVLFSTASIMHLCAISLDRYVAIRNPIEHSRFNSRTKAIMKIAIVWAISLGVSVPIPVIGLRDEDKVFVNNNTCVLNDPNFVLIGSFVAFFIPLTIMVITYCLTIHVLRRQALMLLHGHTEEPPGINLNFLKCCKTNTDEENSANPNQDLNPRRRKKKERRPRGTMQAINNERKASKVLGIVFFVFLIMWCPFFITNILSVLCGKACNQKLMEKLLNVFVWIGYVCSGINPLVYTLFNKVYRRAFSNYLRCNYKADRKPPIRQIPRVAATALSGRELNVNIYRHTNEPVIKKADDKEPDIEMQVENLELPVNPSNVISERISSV
The assay can be described thus: Assay for 5-HT1c affinity, radioligand binding (selectivity against 5-HT2 receptor assay). Also on record: species or system beef. Particulars: low IC50 in the 5-HT1c receptor assay and a higher IC50 in the 5-HT2 receptor assay.

The target in the next assay is T2, 5HT2C (Homo sapiens, UniProt P28335).
T2 construct: expressed in transfected cells
T2 sequence (P28335 33-458): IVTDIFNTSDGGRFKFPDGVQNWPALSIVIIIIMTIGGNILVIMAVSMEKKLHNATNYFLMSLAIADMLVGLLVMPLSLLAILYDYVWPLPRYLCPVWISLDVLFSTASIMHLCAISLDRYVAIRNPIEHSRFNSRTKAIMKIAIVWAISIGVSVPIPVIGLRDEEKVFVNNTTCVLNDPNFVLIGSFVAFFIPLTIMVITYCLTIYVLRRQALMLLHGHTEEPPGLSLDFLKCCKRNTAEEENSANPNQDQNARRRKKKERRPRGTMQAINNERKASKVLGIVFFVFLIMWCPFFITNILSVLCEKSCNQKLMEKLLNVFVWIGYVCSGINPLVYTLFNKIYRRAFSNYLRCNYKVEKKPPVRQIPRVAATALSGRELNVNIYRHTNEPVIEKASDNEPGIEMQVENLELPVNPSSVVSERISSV
In words: Cell assay using human cells, 5HT2C. The class given is binding. Particulars: Table I. As to the method: (§1) The Kd and Bmax values from the saturation assays were determined for best fit to a one-site or a two-site binding model using a partial F-test. De Lean, A., A. A. Hancock, and R. J. Lefkowitz, Mol. Pharmacol. 21:5-16 (1981). The following equation was used for a one-site binding model, [formula] where Bound=amount of [^3 H]5-HT specifically bound, Bmax =maximum number of binding sites, Kd =equilibrium dissociation constant and [L]=free concentration of [^3 H]5-HT, or a two-site binding model, [formula] where Bound=amount of [^3 H]5-HT specifically bound, Bmax1 =maximum number of high affinity binding sites, Bmax2 =maximum number of low affinity binding sites, Kd1 =equilibrium dissociation constant for the high affinity site, Kd2 =equilibrium dissociation constant for the low affinity site and [L]=free concentration of [^3 H]5-HT. The IC50 values from the competition assays, the binding parameters for the IP3 standard curve and the EC50 and Emax values from the IP3 assays were determined by nonlinear regression analysis of four parameter logistic equations (Systat, Systat Inc, Evanston, Ill.). De Lean, A., A. A. Hancock, and R. J. Lefkowitz, Mol. Pharmacol., 21:5-16 (1981). The IC50 values were converted to Ki values using the Cheng-Prusoff equation. Cheng, Y., and W. H. Prusoff, Biochem. Pharmacol., 22:3099-3108 (1973).
(§2) The following Cell assays use Human Cells

The target of the next assay is T3, 5HT2B (Homo sapiens, UniProt P41595).
T3 construct: expressed in transfected cells
T3 sequence (P41595 whole entry): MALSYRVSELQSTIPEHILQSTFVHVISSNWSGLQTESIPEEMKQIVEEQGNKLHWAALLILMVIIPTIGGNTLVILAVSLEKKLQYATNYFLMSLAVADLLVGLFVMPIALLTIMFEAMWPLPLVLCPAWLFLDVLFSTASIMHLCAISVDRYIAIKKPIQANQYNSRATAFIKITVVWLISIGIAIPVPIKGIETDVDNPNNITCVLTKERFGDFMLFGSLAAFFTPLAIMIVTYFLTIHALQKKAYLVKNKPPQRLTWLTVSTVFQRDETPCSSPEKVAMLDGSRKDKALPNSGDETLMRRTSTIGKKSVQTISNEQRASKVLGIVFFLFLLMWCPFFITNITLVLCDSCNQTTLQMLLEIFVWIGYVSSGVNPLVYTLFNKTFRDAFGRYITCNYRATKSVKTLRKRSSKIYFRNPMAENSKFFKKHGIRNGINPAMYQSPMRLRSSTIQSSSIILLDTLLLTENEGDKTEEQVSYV
The assay can be described thus: Cell assay using human cells, 5HT2B (radioligand binding). To be noted: Table I.

The target in the next assay is T4, 5HT2A (Homo sapiens, UniProt P28223).
T4 construct: expressed in transfected cells
T4 sequence (P28223 whole entry): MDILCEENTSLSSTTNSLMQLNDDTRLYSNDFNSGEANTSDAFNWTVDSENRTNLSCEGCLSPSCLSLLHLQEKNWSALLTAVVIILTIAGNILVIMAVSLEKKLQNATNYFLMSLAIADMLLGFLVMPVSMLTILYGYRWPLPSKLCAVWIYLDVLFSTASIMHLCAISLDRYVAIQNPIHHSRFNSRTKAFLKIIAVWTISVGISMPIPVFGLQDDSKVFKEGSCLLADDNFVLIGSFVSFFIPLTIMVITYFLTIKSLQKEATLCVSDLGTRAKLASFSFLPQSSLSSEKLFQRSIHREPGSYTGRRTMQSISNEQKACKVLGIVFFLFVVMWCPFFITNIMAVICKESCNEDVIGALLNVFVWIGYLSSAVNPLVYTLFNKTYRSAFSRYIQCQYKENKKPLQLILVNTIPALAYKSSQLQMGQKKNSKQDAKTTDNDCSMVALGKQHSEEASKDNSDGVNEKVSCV
In words: Cell assay using human cells, 5HT2A. The class given is binding. To be noted: Table I. As to the method: as §1, §2

Protocol for 5-HT1c receptor: Beef brain was removed immediately after slaughter, and choroid plexus were dissected over ice. […] The brain of each was immediately removed and the cerebral cortex was dissected over ice. Tissues were homogenized in 9 volumes of 0.32 mol/L sucrose and centrifuged at 1,000×g for 10 minutes. The supernatant was centrifuged at 17,000 x g for 20 minutes. The pellet was suspended in 100 volumes of 50 mM Tris-HCl (pH7.4), incubated at 37° C. for 10 minutes and centrifuged at 50,000×g for 10 minutes, and the process was repeated three times. The final pellets were frozen at -70° C. and used within 2 weeks. Pellets were rehydrated with physiological buffer prior to use.
For 5-HT1c receptor assays increasing concentrations of experimental compound, 50 mM Tris HCl buffer pH 7.4 , and tritiated mesulergine (2.0 nM) (^3 H ligand) were combined in polystyrene tubes at room temperature. The reaction was initiated by the addition of the resuspended choroid plexus tissue which had been preincubated at 37° C. for 20 minutes. The reaction mixture was incubated in a 37° C. water bath for 15 minutes.
The reactions were terminated by rapid filtration, (Brandel Cell Harvestor), through Whatman GF/B glass filters that had been presoaked in Tris buffer pH 7.4. The filters were then washed 2 times with 5 ml of ice cold Tris buffer pH 7.4. Washed filters were placed in scintillation vials and 10 ml RedySolv, (Brandel), was added and samples were counted in a Searle D-300 beta counter. Means and standard error statistics were calculated for triplicate experimental determinations in certain cases. Mean values were obtained from three or more separate determinations. The incubation time for the reaction mixture was 15 minutes at 37° C.

Regarding `Cc1ccc2[nH]cc([C@@H]3CCCC[C@H]3N)c2c1.Cl` (relative stereo) [Example 3, Trans-3-(2-amino-cyclohexyl)-5-methylindole, hydrochloride], the 5-HT1c selective result at 5-HT1c receptor is reported as “particularly 5-HT1c selective”.

`Cl.N[C@@H]1CCCC[C@H]1c1c[nH]c2c(Cl)cccc12` (relative stereo) [Example 4, Trans-3-(2-amino-cyclohexyl)-7-chloroindole, hydrochloride]: the 5-HT1c selective result at 5-HT1c receptor is “particularly 5-HT1c selective”.

Regarding `Cc1ccc2[nH]c3c(c2c1)[C@@H]1CCCC[C@H]1NC3` (relative stereo) [Example 6, Trans-10-methyl-2,3,4,4a,5,6,7,11c-octahydro-1H-indolo[2,3-c] quinoline, hydrochloride], the 5-HT1c selective result on 5-HT1c receptor is given as “particularly 5-HT1c selective”.

In the case of `Clc1cccc2c3c([nH]c12)CN[C@@H]1CCCC[C@@H]31` (relative stereo) [Example 7, Trans-8-chloro-2,3,4,4a,5,6,7,11c-octahydro-1 H-indolo[2,3-c]quinoline, hydrochloride], the inhibition constant Ki at 5HT2C stood at 977 nM; on 5HT2B, 668 nM; at 5HT2A, 278 nM. For the same compound, the 5-HT1c selective result on 5-HT1c receptor is “particularly 5-HT1c selective”.

Turning to `COc1ccc(CC2N[C@@H]3CCC[C@H]3c3c2[nH]c2ccc(C)cc32)cc1OC` (relative stereo) [Example 8, Trans-5-(3,4-dimethoxybenzyl)-9-methyl-1,2,3,4,4a,5,6,10c-octahydrocyclopenta[a]pyrido [3,4-b]indole, hydrochloride], the Ki at 5HT2C was 221 nM; at 5HT2B it was 9.56 nM; at 5HT2A it was 124 nM.

Consider `COc1ccc(CC2N[C@@H]3CCC[C@H]3c3c2[nH]c2c(Cl)cccc32)cc1OC` (relative stereo) [Example 9, Trans-7-chloro-5-(3,4-dimethoxybenzyl)-1,2,3,4,4a,5,6,10c-octahydrocyclopenta[a]pyrido [3,4-b]indole, hydrochloride], for which the Ki on 5HT2C was found to be 203 nM; on 5HT2B, 52.5 nM; at 5HT2A it was 53.6 nM.

Regarding `COc1ccc(CC2N[C@@H]3CCC[C@H]3c3c2[nH]c2c(C)cc(C)cc32)cc1OC` (relative stereo) [Example 10, Trans-5-(3,4-dimethoxybenzyl)-7,9-dimethyl-1,2,3,4,4a,5,6,10c-octahydrocyclopenta[a]pyrido [3,4-b]indole, hydrochloride], the Ki amounted to 1120 nM on 5HT2C, 106 nM at 5HT2B and 556 nM on 5HT2A. The 5-HT1c selective result at 5-HT1c receptor is “particularly 5-HT1c selective”.

With `COc1ccc(CC2N[C@@H]3CCCC[C@H]3c3c2[nH]c2ccc(C)cc32)cc1OC` (relative stereo) [Example 11, Trans-6-(3,4-dimethoxybenzyl)-10-methyl-2,3,4,4a,5,6,7,11c-octahydro-1H-indolo[2,3-c]quinoline, hydrochloride], the Ki on 5HT2C amounted to 352 nM; at 5HT2B, 16.4 nM; on 5HT2A it was 293 nM.

For the compound `COc1ccc(CC2N[C@@H]3CCCC[C@H]3c3c2[nH]c2c(Cl)cccc32)cc1OC` (relative stereo) [Example 12, Trans-8-chloro-6-(3,4-dimethoxybenzyl)-2,3,4,4a,5,6,7,11c-octahydro-1H-indolo[2,3-c]quinoline, hydrochloride], the Ki at 5HT2C amounted to 783 nM; at 5HT2B it was 121 nM; at 5HT2A, 172 nM.

Take `COc1ccc(CC2N[C@@H]3CCCC[C@H]3c3c2[nH]c2c(C)cc(C)cc32)cc1OC` (relative stereo) [Example 13, Trans-6-(3,4-dimethoxybenzyl)-8,10-dimethyl-2,3,4,4a,5,6,7,11c-octahydro-1H-indolo[2,3-c]quinoline, hydrochloride]: the Ki on 5HT2C was 2170 nM; on 5HT2B, 168 nM; on 5HT2A, 917 nM. In addition, on 5-HT1c receptor, the 5-HT1c selective entry is on record as “particularly 5-HT1c selective”.

On to `COc1ccc(CC2N[C@@H]3CCCCC[C@H]3c3c2[nH]c2ccc(C)cc32)cc1OC` (relative stereo) [Example 14, Trans-7-(3,4-dimethoxybenzyl)-11-methyl-1,2,3,4,5,5a,6,7,8,12a-decahydrocyclohepta[a]pyrido[3,4-b]indole, hydrochloride], for which the inhibition constant (Ki) on 5HT2C was found to be 9250 nM; on 5HT2B it was 3520 nM; on 5HT2A it was 1450 nM.

With `Cc1ccc2[nH]c3c(c2c1)[C@@H]1CCC[C@H]1NC3Cc1cccc2ccccc12` (relative stereo) [Example 15, Trans-9-methyl-5-(1-naphthylmethyl)-1,2,3,4,4a,5,6,10c-octahydrocyclopenta[a]pyrido [3,4]-blindole, hydrochloride], the inhibition constant (Ki) on 5HT2C was found to be 52.1 nM; at 5HT2A, 33 nM.

In the case of `Cc1ccc2[nH]c3c(c2c1)[C@@H]1CCCC[C@H]1NC3Cc1cccc2ccccc12` (relative stereo) [Example 16, Trans-10-methyl-6-(1-naphthylmethyl)-2,3,4,4a,5,6,7,11c-octahydro-1H-indolo[2,3-c]quinoline, hydrochloride], on 5-HT1c receptor, the 5-HT1c selective result is recorded as “particularly 5-HT1c selective”.

With `Cc1cc(C)c2[nH]c3c(c2c1)[C@@H]1CCCC[C@H]1NC3Cc1cccc2ccccc12` (relative stereo) [Example 17, Trans-8,10-dimethyl-6-(1-naphthylmethyl)-2,3,4,4a,5,6,7,11c-octahydro-1H-indolo[2,3-c]quinoline, hydrochloride], the Ki was 1110 nM at 5HT2C, 367 nM at 5HT2B and 264 nM on 5HT2A.

Take `COc1cc2c(cc1OC)CC1(CC2)N[C@H]2CCCC[C@@H]2c2c1[nH]c1ccc(C)cc21` (relative stereo) [Example 18, Trans-spiro-6,6-[2-(3,4-dimethoxy)-1,2,3,4-tetrahydronaphthyl]-10-methyl-2,3,4,4a,5,6,7,11a-octahydro-1 H-indolo[2,3-c]quinidine, hydrochloride]: the figures for the Ki at 5HT2C (hydrochloride), at 5HT2B (hydrochloride) and at 5HT2A (hydrochloride) were 325 nM, 178 nM and 363 nM, respectively.

In the case of `COc1cc2c(cc1OC)CC1(CC2)N[C@H]2CCCC[C@@H]2c2c1[nH]c1ccc(C)cc21` (single isomer, unassigned; isomer 18) [Isomer 18(1), Trans-spiro-6,6-[2-(3,4-dimethoxy)-1,2,3,4-tetrahydronaphthyl]-10-methyl-2,3,4,4a,5,6,7,11a-octahydro-1 H-indolo[2,3-c]quinidine, hydrochloride], the Ki came out at 138 nM on 5HT2C (hydrochloride), 143 nM at 5HT2B (hydrochloride) and 153 nM on 5HT2A (hydrochloride).

As for `COc1cc2c(cc1OC)CC1(CC2)N[C@H]2CCCC[C@@H]2c2c1[nH]c1ccc(C)cc21` (single isomer, unassigned; isomer 18) [Isomer 18(2), Trans-spiro-6,6-[2-(3,4-dimethoxy)-1,2,3,4-tetrahydronaphthyl]-10-methyl-2,3,4,4a,5,6,7,11a-octahydro-1 H-indolo[2,3-c]quinidine, hydrochloride], the inhibition constant (Ki) on 5HT2C (hydrochloride) came out at 6210 nM; at 5HT2B (hydrochloride), 2890 nM; at 5HT2A (hydrochloride) it was 1970 nM.

By Ki is commonly meant a dissociation constant, usually derived from enzyme kinetics or from competition with a known ligand. Low readings indicate higher affinity, high ones lower affinity.
